These results are taken from US12565501B2, “Muscarinic acetylcholine M1 receptor antagonists” (Contineum Therapeutics, Inc., priority 2019, dated 2026).

The target in the test is T1, human M1 receptor (Homo sapiens, UniProt P11229).
T1 sequence (P11229 1-460): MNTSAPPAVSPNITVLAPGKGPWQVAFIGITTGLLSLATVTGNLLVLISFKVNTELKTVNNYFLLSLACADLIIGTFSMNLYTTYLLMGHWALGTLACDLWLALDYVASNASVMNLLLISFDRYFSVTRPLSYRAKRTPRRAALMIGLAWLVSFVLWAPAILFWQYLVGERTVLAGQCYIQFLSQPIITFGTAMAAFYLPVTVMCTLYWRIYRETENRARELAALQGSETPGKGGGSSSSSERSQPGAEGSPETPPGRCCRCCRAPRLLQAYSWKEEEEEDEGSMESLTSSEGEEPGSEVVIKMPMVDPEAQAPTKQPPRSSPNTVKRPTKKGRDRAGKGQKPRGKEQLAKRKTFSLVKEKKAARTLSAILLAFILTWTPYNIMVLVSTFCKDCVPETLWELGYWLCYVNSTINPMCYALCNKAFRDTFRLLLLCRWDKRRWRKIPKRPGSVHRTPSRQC
Put plainly: In vitro functional assay of muscarinic acetylcholine receptor activity (aequorin calcium flux, reversal of EC80 acetylcholine response). In kind it is cell-based. To be noted: CHO-K1 cells stably expressing human M1 receptor with aequorin; acetylcholine at EC80; calcium flux (luminescence); read-out: M1 IC50. The gist of the method:
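CHO-K1 cells expressing human M1 and aequorin, loaded with 5 μM coelenterazine for 4 h, preincubated with compound 30 min at room temperature, then challenged with EC80 acetylcholine.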

Some results are limits rather than exact numbers.

As for `N#Cc1ccc(N2[C@@H]3CC[C@H]2CN(C(=O)/C=C/C(F)(F)c2cccn4ncnc24)C3)nc1` [Example 146, 6-(3-((E)-4-([1,2,4]triazolo[1,5-a]pyridin-8-yl)-4,4-difluorobut-2-enoyl)-3,8-diazabicyclo[3.2.1]octan-8-yl)nicotinonitrile], the half-inhibitory concentration (IC50) is below 0.01 µM.

Consider `N#Cc1ccc(N2C3CCC2CN(C(=O)/C=C/C(F)(F)c2cccc4ncnn24)C3)nc1` [Example 148, 6-(-3-((E)-4-([1,2,4]triazolo[1,5-a]pyridin-5-yl)-4,4-difluorobut-2-enoyl)-3,8-diazabicyclo[3.2.1]octan-8-yl)nicotinonitrile], for which the IC50 was below 0.01 µM.

For the compound `[2H]C([2H])([2H])Oc1cc(C(F)(F)/C=C/C(=O)N2CC3CCC(C2)N3c2ccc(C#N)cn2)ccn1` [Example 149, 6-(3-((E)-4,4-difluoro-4-(2-(methoxy-d3)pyridin-4-yl)but-2-enoyl)-3,8-diazabicyclo[3.2.1]octan-8-yl)nicotinonitrile], the IC50 was below 0.01 µM.

For the compound `COc1cc(C(F)(F)CCCC(=O)N2CC3CCC(C2)N3c2ccc(C#N)cn2)ccn1` [Example 150, 6-(3-(5,5-difluoro-5-(2-methoxypyridin-4-yl)pentanoyl)-3,8-diazabicyclo[3.2.1]octan-8-yl)nicotinonitrile], the half-maximal inhibitory concentration (IC50) lay in the range of 0.1 to 1 µM.

Turning to `COc1cc(C2(/C=C/C(=O)N3CC4CCC(C3)N4c3ccc(C#N)cn3)CCC2)ccn1` [Example 151, 6-(3-((E)-3-(1-(2-methoxypyridin-4-yl)cyclobutyl)acryloyl)-3,8-diazabicyclo[3.2.1]octan-8-yl)nicotinonitrile], the IC50 is below 0.01 µM.

Turning to `N#Cc1ccc(N2C3CCC2CN(C(=O)C2CC(O)(c4cccc5ncccc45)C2)C3)nc1` (stereo not shown) [Example 152, 6-(3-(3-hydroxy-3-(quinolin-5-yl)cyclobutane-1-carbonyl)-3,8-diazabicyclo[3.2.1]octan-8-yl)nicotinonitrile], the IC50 is 1 to 10 µM.

`COc1cc(C(F)(F)CCC(=O)N2C[C@@H]3C[C@H]2CN3c2ccc(C#N)cn2)ccn1` [Example 154, 6-((1S,4S)-5-(4,4-difluoro-4-(2-methoxypyridin-4-yl)butanoyl)-2,5-diazabicyclo[2.2.1]heptan-2-yl)nicotinonitrile]: the IC50 lay within 1 to 10 µM.

For `COc1cc(C(F)(F)CCC(=O)N2C[C@@H]3CC[C@H]2CN3c2ccc(C#N)cn2)ccn1` [Example 155, 6-((1S,4S)-5-(4,4-difluoro-4-(2-methoxypyridin-4-yl)butanoyl)-2,5-diazabicyclo[2.2.2]octan-2-yl)nicotinonitrile], the IC50 was 0.01 to 0.1 µM.

In the case of `COc1cc(C(F)(F)CCC(=O)N2CC3CCC(C2)N3c2ccnc(C#N)c2)ccn1` [Example 156, 4-(3-(4,4-difluoro-4-(2-methoxypyridin-4-yl)butanoyl)-3,8-diazabicyclo[3.2.1]octan-8-yl)picolinonitrile], the concentration for half-maximal inhibition (IC50) is 0.1 to 1 µM.

On to `COc1cc(C(F)(F)CCC(=O)N2CC3CCC(C2)N3c2ccc(C)nn2)ccn1` [Example 157, 4,4-difluoro-4-(2-methoxypyridin-4-yl)-1-(8-(6-methylpyridazin-3-yl)-3,8-diazabicyclo[3.2.1]octan-3-yl)butan-1-one], for which the IC50 was in the range of 0.1 to 1 µM.

Regarding `COc1ncccc1C(F)(F)CCC(=O)N1CC2CCC(C1)N2c1ccc(C#N)cn1` [Example 159, 6-(3-(4,4-difluoro-4-(2-methoxypyridin-3-yl)butanoyl)-3,8-diazabicyclo[3.2.1]octan-8-yl)nicotinonitrile], the IC50 was below 0.01 µM.

`COc1cncc(C(F)(F)CCC(=O)N2CC3CCC(C2)N3c2ccc(C#N)cn2)c1` [Example 160, 6-(3-(4,4-difluoro-4-(5-methoxypyridin-3-yl)butanoyl)-3,8-diazabicyclo[3.2.1]octan-8-yl)nicotinonitrile]: the IC50 was below 0.01 µM.

Consider `COc1ccncc1C(F)(F)CCC(=O)N1CC2CCC(C1)N2c1ccc(C#N)cn1` [Example 161, 6-(3-(4,4-difluoro-4-(4-methoxypyridin-3-yl)butanoyl)-3,8-diazabicyclo[3.2.1]octan-8-yl)nicotinonitrile], for which the IC50 was below 0.01 µM.

For the compound `N#Cc1ccc(N2C3CCC2CN(C(=O)CCC(F)(F)c2cccc4ncnn24)C3)nc1` [Example 163, 6-(3-(4-([1,2,4]triazolo[1,5-a]pyridin-5-yl)-4,4-difluorobutanoyl)-3,8-diazabicyclo[3.2.1]octan-8-yl)nicotinonitrile], the IC50 was below 0.01 µM.

Consider `COc1cc(C2(CCC(=O)N3CC4CCC(C3)N4c3ccc(C#N)cn3)CCC2)ccn1` [Example 164, 6-(3-(3-(1-(2-methoxypyridin-4-yl)cyclobutyl)propanoyl)-3,8-diazabicyclo[3.2.1]octan-8-yl)nicotinonitrile], for which the IC50 was below 0.01 µM.

Take `[2H]C([2H])([2H])Oc1cc(C(F)(F)CCC(=O)N2CC3CCC(C2)N3c2ccc(C#N)cn2)ccn1` [Example 165, 6-(3-(4,4-difluoro-4-(2-(methoxy-d3)pyridin-4-yl)butanoyl)-3,8-diazabicyclo[3.2.1]octan-8-yl)nicotinonitrile]: the IC50 is 0.01 to 0.1 µM.

Turning to `C[C@@H](OCC(=O)N1C[C@H]2CC[C@@H](C1)N2c1ccc(C#N)cn1)c1ccccc1` [Example 178, 6-(3-(2-((R)-1-phenylethoxy)acetyl)-3,8-diazabicyclo[3.2.1]octan-8-yl)nicotinonitrile], the IC50 was 0.1 to 1 µM.

`C[C@H](OCC(=O)N1CC2CCC(C1)N2c1ccc(C#N)cn1)c1ccccc1` [Example 179, 6-(3-(2-((S)-1-phenylethoxy)acetyl)-3,8-diazabicyclo[3.2.1]octan-8-yl)nicotinonitrile]: the IC50 was in the range of 0.1 to 1 µM.

As to `N#Cc1ccc(N2C3CCC2CN(C(=O)COC2(c4ccccc4)CC2)C3)nc1` [Example 180, 6-(3-(2-(1-phenylcyclopropoxy)acetyl)-3,8-diazabicyclo[3.2.1]octan-8-yl)nicotinonitrile], the IC50 lay in the range of 0.01 to 0.1 µM.

In the case of `N#Cc1ccc(N2C3CCC2CN(C(=O)COC2(c4ccccc4Br)CC2)C3)nc1` [Example 181, 6-(3-(2-(1-(2-bromophenyl)cyclopropoxy)acetyl)-3,8-diazabicyclo[3.2.1]octan-8-yl)nicotinonitrile], the IC50 is 0.01 to 0.1 µM.

Consider `C[C@H](OCC(=O)N1C[C@H]2CC[C@@H](C1)N2c1ccc(C#N)cn1)c1ccc(F)c(F)c1` [Example 182, 6-(3-(2-((S)-1-(3,4-difluorophenyl)ethoxy)acetyl)-3,8-diazabicyclo[3.2.1]octan-8-yl)nicotinonitrile], for which the IC50 lay in the range of 0.01 to 0.1 µM.

Take `C[C@H](COCC(=O)N1CC2CCC(C1)N2c1ccc(C#N)cn1)c1ccccc1` [Example 186, 6-(3-(2-((S)-2-phenylpropoxy)acetyl)-3,8-diazabicyclo[3.2.1]octan-8-yl)nicotinonitrile]: the IC50 was in the range of 1 to 10 µM.

In the case of `N#Cc1ccc(N2C3CCC2CN(C(=O)COCC2(c4ccccc4)CC2)C3)nc1` [Example 187, 6-(3-(2-((1-phenylcyclopropyl)methoxy)acetyl)-3,8-diazabicyclo[3.2.1]octan-8-yl)nicotinonitrile], the 50% inhibitory concentration (IC50) fell in the range of 0.1 to 1 µM.

With `N#Cc1ccc(N2C3CCC2CN(C(=O)COCC2(c4ccc(F)cc4)CC2)C3)nc1` [Example 188, 6-(3-(2-((1-(4-fluorophenyl)cyclopropyl)methoxy)acetyl)-3,8-diazabicyclo[3.2.1]octan-8-yl)nicotinonitrile], the concentration for half-maximal inhibition (IC50) lay within 1 to 10 µM.

For the compound `N#Cc1ccc(N2C3CCC2CN(C(=O)COCC2(c4ccncc4)CC2)C3)nc1` [Example 189, 6-(3-(2-((1-(pyridin-4-yl)cyclopropyl)methoxy)acetyl)-3,8-diazabicyclo[3.2.1]octan-8-yl)nicotinonitrile], the IC50 was in the range of 1 to 10 µM.

For the compound `N#Cc1ccc(N2C3CCC2CN(C(=O)COC2(c4ccc(F)cc4)CC2)C3)nc1` [Example 205, 6-(3-(2-(1-(4-fluorophenyl)cyclopropoxy)acetyl)-3,8-diazabicyclo[3.2.1]octan-8-yl)nicotinonitrile], the IC50 was 0.1 to 1 µM.

Regarding `N#Cc1ccc(N2C3CCC2CN(C(=O)COC2(c4cccc(F)c4)CC2)C3)nc1` [Example 206, 6-(3-(2-(1-(3-fluorophenyl)cyclopropoxy)acetyl)-3,8-diazabicyclo[3.2.1]octan-8-yl)nicotinonitrile], the IC50 was in the range of 0.1 to 1 µM.

With `N#Cc1ccc(N2C3CCC2CN(C(=O)COC2(c4ccccc4F)CC2)C3)nc1` [Example 207, 6-(3-(2-(1-(2-fluorophenyl)cyclopropoxy)acetyl)-3,8-diazabicyclo[3.2.1]octan-8-yl)nicotinonitrile], the IC50 is 0.01 to 0.1 µM.

In the case of `N#Cc1ccc(N2C3CCC2CN(C(=O)COC2(c4ccc(Br)cc4)CC2)C3)nc1` [Example 208, 6-(3-(2-(1-(4-bromophenyl)cyclopropoxy)acetyl)-3,8-diazabicyclo[3.2.1]octan-8-yl)nicotinonitrile], the IC50 fell in the range of 0.1 to 1 µM.

For `N#Cc1ccc(N2C3CCC2CN(C(=O)COC2(c4cccc(Br)c4)CC2)C3)nc1` [Example 209, 6-(3-(2-(1-(3-bromophenyl)cyclopropoxy)acetyl)-3,8-diazabicyclo[3.2.1]octan-8-yl)nicotinonitrile], the IC50 lay within 0.1 to 1 µM.

As for `N#Cc1ccc(N2C3CCC2CN(C(=O)COC2(c4cccc(F)c4F)CC2)C3)nc1` [Example 211, 6-(3-(2-(1-(2,3-difluorophenyl)cyclopropoxy)acetyl)-3,8-diazabicyclo[3.2.1]octan-8-yl)nicotinonitrile], the IC50 was in the range of 0.01 to 0.1 µM.

One may read the IC50 as the concentration needed to halve the response being measured.
